According to patent US20260335456A1, “ANTIBODY-DRUG CONJUGATE HAVING CAMPTOTHECIN-BASED DRUG LINKED TO ANTIBODY HAVING LOW ANTIGEN-BINDING AFFINITY THROUGH LINKER” (PINOTBIO, INC., priority 2022, published 2026):

Key:
FaDu cell line = assay: Western blot of DDX5 and anti-apoptotic proteins in FaDu; type: cell-based; settings: 0, 10, 100 nM; for DDX5 degradation ranking: FaDu and A549; for expression of anti-apoptotic proteins: Survivin, cIAP2, Mcl-1, XIAP, 24 hours
Experimental: 1-1: Confirmation of Suppressive Activity of Expression of Cancer-Related Survival Genes of DDX5, Survivin, Mcl-1, XIAP and cIAP2 Through Western Blot
200,000 FaDu cell lines were seeded per well in a 6-well plate and incubated at constant temperature (37 °C, 5% CO2). […] It was incubated at constant temperature (37 °C, 5% CO2) for 24 hours. The well was treated with 100 μL of RIPA buffer dissolved in protease inhibitor cocktail. […] Protein concentration was determined through protein assay.
Electrophoresis was performed on the gel at 60V.
7 sheets of activated filter paper, PVDF membrane, gel and 7 sheets of filter paper were placed in order in the cassettes of the Trans-Blot® Turbo™ Transfer System, and the lid was closed, and after being inserted into the machine, the protocol started.
The transferred membrane was immersed in blocking buffer and incubated at constant temperature (RT, 1h). Next, it was incubated at 4 °C overnight in primary antibody solution. It was rinsed with TBST buffer for 3 minutes (repeated 3 times). Incubation was performed (RT, 1h) in a secondary antibody solution conjugated with HRP. It was rinsed with TBST buffer for 3 minutes (repeated 3 times).
After soaking the membrane in the ECL substrate for 3 to 5 minutes, the signal was determined by using the ChemiDoc™ MP Imaging System.

A549 cell line = assay: Western blot of DDX5 and anti-apoptotic proteins in A549; type: cell-based; settings: for DDX5 degradation ranking: FaDu and A549, 0, 10, 100 nM
[1] = Kim et al.; doses 10 times higher than the clinically applicable dose; cited from earlier work
patients = settings: domestic clinical studies; cited from earlier work
[2] = test system: wide range of cancer cell lines; settings: Lee et al.; cited from earlier work
DDX5 protein = DDX5 protein (Homo sapiens, UniProt P17844); assay: DDX5 degradation by camptothecin drugs; type: cell-based; settings: FIGS. 7 to 10
DDX5 protein, sequence (P17844 whole entry): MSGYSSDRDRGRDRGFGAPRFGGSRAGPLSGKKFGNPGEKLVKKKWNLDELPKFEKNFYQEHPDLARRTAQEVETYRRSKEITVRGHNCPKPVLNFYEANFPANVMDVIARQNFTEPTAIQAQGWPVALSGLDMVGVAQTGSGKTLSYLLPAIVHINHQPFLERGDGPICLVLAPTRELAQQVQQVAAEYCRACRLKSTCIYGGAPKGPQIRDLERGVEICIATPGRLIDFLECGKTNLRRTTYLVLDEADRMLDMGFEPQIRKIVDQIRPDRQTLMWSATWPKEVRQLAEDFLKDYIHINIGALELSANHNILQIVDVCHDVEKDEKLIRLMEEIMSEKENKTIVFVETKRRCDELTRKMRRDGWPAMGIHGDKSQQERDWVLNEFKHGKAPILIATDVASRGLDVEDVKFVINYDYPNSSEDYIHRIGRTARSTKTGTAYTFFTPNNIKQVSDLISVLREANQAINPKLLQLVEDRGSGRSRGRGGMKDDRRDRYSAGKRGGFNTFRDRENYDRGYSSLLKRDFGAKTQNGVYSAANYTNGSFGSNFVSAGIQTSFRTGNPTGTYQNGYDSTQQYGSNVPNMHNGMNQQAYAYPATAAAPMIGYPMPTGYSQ

ABCG2 = target: T1, ABCG2 (Homo sapiens, UniProt Q9UNQ0); assay: Sensitivity to ABCG2 transporter; type: cell-based
T1 sequence (Q9UNQ0 1-655): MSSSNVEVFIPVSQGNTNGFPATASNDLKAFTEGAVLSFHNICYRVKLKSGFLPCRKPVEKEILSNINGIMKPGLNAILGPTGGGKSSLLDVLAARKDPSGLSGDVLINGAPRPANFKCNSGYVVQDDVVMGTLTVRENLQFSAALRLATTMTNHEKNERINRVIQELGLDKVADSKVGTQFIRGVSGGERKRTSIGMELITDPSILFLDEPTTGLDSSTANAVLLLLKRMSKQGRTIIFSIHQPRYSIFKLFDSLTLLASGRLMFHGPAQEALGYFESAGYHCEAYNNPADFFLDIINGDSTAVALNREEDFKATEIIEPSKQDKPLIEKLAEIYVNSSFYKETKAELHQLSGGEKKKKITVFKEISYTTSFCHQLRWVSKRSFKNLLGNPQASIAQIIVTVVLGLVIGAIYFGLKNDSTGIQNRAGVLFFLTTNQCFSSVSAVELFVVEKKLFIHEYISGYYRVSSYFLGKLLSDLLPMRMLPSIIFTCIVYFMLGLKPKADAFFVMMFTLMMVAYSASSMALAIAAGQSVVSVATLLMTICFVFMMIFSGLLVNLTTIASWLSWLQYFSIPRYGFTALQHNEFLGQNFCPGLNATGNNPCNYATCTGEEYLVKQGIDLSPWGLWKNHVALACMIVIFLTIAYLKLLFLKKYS

[3] = Lactone to carboxylate form conversion in pH 7.4; type: physicochemical; settings: for rate of conversion from lactone to carboxylate form / degraded at 3 µM: pH 7.4, 37 °C; for degraded at 3 µM: PBS with 10% DMSO, read-out: carboxylate form formed; for lactone to carboxylate conversion versus reference compounds: pH 7.4, reference: exatecan, DXd, SN-38, FL118
Experimental: 3-2. Lactone to Carboxylate Form Conversion in pH 7.4
Afterwards, it was centrifuged at 4 °C, 2 minutes, and 13,000 RCF conditions, and the supernatant was used as a sample.
The column used was Cortecs C18 2.7 μm, 4.6×50 mm Column, and analysis was conducted under the following conditions. 1) 20 minutes: 5% B, 2) sample injection, 3) 2 minutes: 5% B, 4) 10 minutes: 5% B→50% B, 5) 1 minute: 50% B.
In order to measure changes over time, the sample chamber was maintained at 37 °C, and the sample was set to be injected every measurement time. The measurement times were 0, 20, 40, 60, 90, 120, 180, 240, 300, 360, 480, 600 and 720 minutes.
The content was calculated from the peak area of each lactone and carboxylate. Since the absorption coefficients of lactone and carboxylate are different, the lactone area was obtained by multiplying the carboxylate area by the equation below.

A549 = assay: Cell viability assay in A549; type: cell-based; settings: for efficacy / IC50 in ABCG2-overexpressing cells: A549, FIG. 9
Experimental: (§1) After 24 hours, 100 μL of the drug at 9 concentrations (serial dilution of 1/5 from 1,000 nM) was treated with the cells. […] In this case, a control group that was not treated with the drug (drug concentration 0) was also prepared. It was cultured at constant temperature (37 °C, 5% CO2) for 3 or 6 days. 100 μL of CellTiter-Glo reagent (using CellTiter-Glo® Luminescent Cell Viability Assay kit (Promega, G7571)) was added to each well and pipetted. After incubation at constant temperature (RT) for 10 minutes, luminescence was measured.

[4] = test system: HCT-8 and FaDu cell lines; assay: Western blot of anti-apoptotic proteins in HCT-8 and FaDu; type: cell-based; settings: FIG. 6
Description: GAPDH is an enzyme involved in glycolysis, which is an essential metabolic process in cells.

various cancer cells = settings: resistance due to expression of P-glycoprotein; cited from earlier work
DNA topoisomerase I = DNA topoisomerase I (Homo sapiens, UniProt P11387); settings: versus SN-38 and topotecan; cited from earlier work
DNA topoisomerase I, sequence (P11387 whole entry): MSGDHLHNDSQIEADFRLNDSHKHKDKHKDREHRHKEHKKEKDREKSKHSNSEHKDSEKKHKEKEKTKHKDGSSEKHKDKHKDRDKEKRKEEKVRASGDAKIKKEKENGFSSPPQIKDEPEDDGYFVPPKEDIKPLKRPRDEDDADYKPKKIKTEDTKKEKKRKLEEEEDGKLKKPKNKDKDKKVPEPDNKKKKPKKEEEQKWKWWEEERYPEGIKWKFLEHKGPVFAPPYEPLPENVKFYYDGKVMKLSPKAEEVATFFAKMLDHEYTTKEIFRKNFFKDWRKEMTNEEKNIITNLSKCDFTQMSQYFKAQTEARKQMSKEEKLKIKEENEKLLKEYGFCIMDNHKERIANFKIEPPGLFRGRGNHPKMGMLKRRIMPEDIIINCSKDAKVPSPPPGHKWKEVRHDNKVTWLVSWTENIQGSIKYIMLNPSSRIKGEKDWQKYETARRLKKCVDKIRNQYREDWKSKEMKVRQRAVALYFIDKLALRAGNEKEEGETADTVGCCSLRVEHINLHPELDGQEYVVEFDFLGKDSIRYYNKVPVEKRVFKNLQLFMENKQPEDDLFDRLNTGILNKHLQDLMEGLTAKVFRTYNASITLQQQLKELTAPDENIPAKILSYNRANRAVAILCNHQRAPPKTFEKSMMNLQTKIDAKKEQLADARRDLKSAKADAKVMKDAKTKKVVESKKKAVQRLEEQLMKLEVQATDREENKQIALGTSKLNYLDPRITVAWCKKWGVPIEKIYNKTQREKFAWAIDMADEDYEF

in vitro cytotoxicity = assay: In vitro cytotoxicity of FL118, exatecan versus SN-38; type: cell-based; settings: FIG. 5
[5] = test system: cancer cell line Xenograft models; assay: FL118 xenograft and human tumor animal model efficacy; type: in vivo
Description: Genetic manipulation of DDX5 in PDAC cells affects tumor growth.
(§2) Meanwhile, camptothecin-based anticancer drugs show excellent anticancer responses initially when used in patients, but strong resistance to these drugs appears through Epigenetic Silencing of the Top1 gene and Top2 Dependence of cancer cells.

[6] = test system: cancer cell line Xenograft models; settings: cited from earlier work
[7] = FL118 pharmacokinetics and tumor accumulation; type: in vivo
Description: For example, when applying ADC, maximum selectivity between tumor tissue and normal tissue is ensured.

rats and beagle dogs = assay: FL118 GLP-toxicity tests; type: in vivo; settings: GLP-toxicity tests in rats and beagle dogs
Description: as §2

PDAC cells with DDX5 KO = settings: cited from earlier work
FaDu = assay: Cell viability assay in FaDu; type: cell-based
Experimental: as §1

several cell lines = settings: cited from earlier work
MDA-MB-468 tumor model = assay: In vivo efficacy in MDA-MB-468 model (EGFR ADCs); parameters: species or system mouse
Experimental: Cells growing in exponential growth phase were harvested and counted for tumor inoculation.
MDA-MB-468 cells (1×10^7) in 0.2 mL of DPBS with Matrigel were inoculated subcutaneously into the right anterior flank of each mouse. When the average tumor volume reached approximately 215 mm^3, animals were randomly grouped, and then, treatment for drug efficacy studies was initiated.
During routine monitoring, normal behavior such as mobility, food and water consumption (observation only), body weight changes (weighed twice weekly), eye/hair mailing, tumor growth and effectiveness of treatment were checked in animals every day. Deaths and observed clinical signs were recorded based on the number of animals in each subset.
The primary endpoint was determined as a time point when tumor growth could be delayed or the mice could be cured. The two-dimensional size of the tumor was measured twice weekly using a caliper, and the volume was expressed in mm^3 using the equation (V=0.5 a×b^2, where a and b are the long and short diameters of the tumor, respectively).
Tumor growth inhibition (TGI) was calculated for each group.
TGI (%)=[1−(Ti/T0)/(Vi/V0)]×100 […]

Molecule: CC[C@@]1(O)C(=O)OCc2c1cc1n(c2=O)Cc2c-1nc1cc3c(c4c1c2[C@@H](N)CC4)OCO3 (single isomer, unassigned) [PBX-7011]
- DDX5 degradation ranking (FaDu cell line): followed by 7011, 7016 and 7014
- expression of anti-apoptotic proteins (FaDu cell line): decrease in the expression of Survivin, cIAP2, Mcl-1 and XIAP as the concentration increased
- DDX5 degradation ranking (A549 cell line): followed by 7011, 7016 and 7014

Molecule: CC[C@@]1(O)C(=O)OCc2c1cc1n(c2=O)Cc2c-1nc1ccccc1c2CCNC(C)C [CKD-602]
- adverse drug reactions [1]: no adverse drug reactions other than increased gastric secretion
- side effects in clinical studies (patients): only reversible and controllable side effects such as neutropenia and leukopenia
- anticancer effects versus camptothecin and topotecan [2]: superior anticancer effects compared to camptothecin and topotecan

Molecule: CC[C@@]1(O)C(=O)OCc2c1cc1n(c2=O)Cc2c-1nc1cc(F)c(C)c3c1c2[C@@H](NC(=O)CO)CC3 [Dxd, reference compound]
- DDX5 degradation mechanism of action (DDX5 protein): exerts a mechanism of action (MoA) to degrade DDX5 protein
- sensitivity to ABCG2 (ABCG2): strongly influenced by ABCG2
- rate of conversion from lactone to carboxylate form [3]: 0.6 % per minute
- degraded at 3 µM [3]: 76.5%
- efficacy / IC50 in ABCG2-overexpressing cells (A549): increased IC50 values

Molecule: CC[C@@]1(O)C(=O)OCc2c1cc1n(c2=O)Cc2c-1nc1cc(F)c(C)c3c1c2[C@@H](N)CC3 [Exatecan]
- DDX5 degradation mechanism of action (DDX5 protein): exerts a mechanism of action (MoA) to degrade DDX5 protein
- downregulating tumor proteins versus SN-38 [4]: better efficacy in downregulating tumor proteins compared to the SN-38 drug
- effect on cancer cells resistant to SN-38 and other drugs (various cancer cells): effective against cancer cells that are resistant to SN-38
- sensitivity to ABCG2 (ABCG2): almost unaffected by ABCG2
- type I topoisomerase inhibitory activity (DNA topoisomerase I): stronger type I topoisomerase inhibitory activity than SN-38
- in vitro cytotoxicity versus SN-38 (in vitro cytotoxicity): better efficacy against in vitro cytotoxicity compared to SN-38

Molecule: CC[C@@]1(O)C(=O)OCc2c1cc1n(c2=O)Cc2cc3cc4c(cc3nc2-1)OCO4 [FL118, 10, 11-methylenedioxy-camptothecin]
- DDX5 degradation mechanism of action (DDX5 protein): directly binds to the tumor protein DDX5
- xenograft efficacy, Top1 not expressed ([5]; Epigenetic Silencing or Knock-out of Top1): strong efficacy
- anticancer efficacy after SN-38 resistance ([5]; after inducing SN-38 resistance in tumor xenograft): strong anticancer efficacy
- tumor regression efficacy ([5]; same amount as SN-38, colon, head and neck, pancreatic cancer): stronger tumor regression efficacy than SN-38
- xenograft efficacy ([5]; versus SN-38 in various cancer cell line Xenograft models): superior efficacy compared to SN-38
- efficacy in eliminating human PDAC and CRC tumors, high DDX5 expression ([6]; high DDX5 expression): high efficacy
- efficacy in PDAC and CRC tumors, low DDX5 expression ([6]; low DDX5 expression): less effective
- downregulating tumor proteins versus SN-38 [4]: better efficacy in downregulating tumor proteins compared to the SN-38 drug
- sensitivity to ABCG2 (ABCG2): not affected by the ABCG2 Transporter
- accumulation in cancer tissue ([7]; immediately after administration): accumulates quickly in cancer tissue
- blood clearance ([7]; systemic administration alone): rapidly metabolized and excreted from the blood
- safety (rats and beagle dogs): excellent safety
- sensitivity of DDX5 KO cells (PDAC cells with DDX5 KO): resistant
- in vitro cytotoxicity versus SN-38 (in vitro cytotoxicity): better efficacy against in vitro cytotoxicity compared to SN-38
- DDX5 degradation ranking (FaDu cell line): superior to other substances
- DDX5 degradation ranking (A549 cell line): superior to other substances

Molecule: CC[C@@]1(O)C(=O)OCc2c1cc1n(c2=O)Cc2c-1nc1cc3c(c4c1c2[C@@H](NC(=O)CO)CC4)OCO3 [PBX-7014]
- rate of conversion from lactone to carboxylate form [3]: 0.8 % per minute
- degraded at 3 µM [3]: > 86%
- lactone to carboxylate conversion versus reference compounds [3]: faster and at a higher rate than other reference compounds
- DDX5 degradation ranking (FaDu cell line): followed by 7011, 7016 and 7014
- expression of anti-apoptotic proteins (FaDu cell line): decrease in the expression of Survivin, cIAP2, Mcl-1 and XIAP as the concentration increased
- dual mechanism (topoisomerase I inhibition and DDX5 degradation) (A549 cell line): dual MoA that acts as a degrader of DDX5 (p68)
- DDX5 degradation ranking (A549 cell line): followed by 7011, 7016 and 7014

Molecule: CC[C@@]1(O)C(=O)OCc2c1cc1n(c2=O)Cc2c-1nc1cc3c(c4c1c2[C@@H](NC(=O)[C@@H](O)C1CC1)CC4)OCO3 [PBX-7024]
- sensitivity to ABCG2 (ABCG2): not affected by ABCG2
- lactone to carboxylate conversion versus reference compounds [3]: faster and at a higher rate than other reference compounds
- efficacy / IC50 in ABCG2-overexpressing cells (A549): still maintained strong efficacy
- apoptosis effect (A549; A549, overexpresses ABCG2, 3 days): strong apoptosis effect
- IC50 compared to Dxd (A549; FaDu and A549, 3 days, FIG. 9): IC50 of an equal or higher level compared to Dxd
- IC50 compared to Dxd (FaDu; 3 days, FIG. 9): IC50 of an equal or higher level compared to Dxd
- apoptosis effect (FaDu; does not express ABCG2, 3 days): strong apoptosis effect

Molecule: CCc1c2c(nc3ccc(O)cc13)-c1cc3c(c(=O)n1C2)COC(=O)[C@]3(O)CC [SN-38]
- IC50 (several cell lines): nanomolar range
- sensitivity to ABCG2 (ABCG2): show resistance in the way that the drug is released out of the cell due to overexpression of the ABCG2 Transporter

Molecule: Nimotuzumab-CL2A-FL118: nimotuzumab ADC with CL2A-FL118 (Example 4)
- efficacy (MDA-MB-468 tumor model; 1 mpk, 5 mpk and 10 mpk, versus cetuximab-based ADC): better efficacy
- in vivo efficacy versus Cetuximab-CL2A-FL118 (MDA-MB-468 tumor model; FIG. 22): better efficacy compared to Cetuximab-CL2A-FL118
